pIC50: −log10 of the molar value.
Tests used:
[1] = test system: human breast cancer cell line MDA-MB-468; assay: Cytotoxic test (CellTiter-Glo cell viability), MDA-MB-468; format: cell-based; conditions: Table 8, cultured for 4 days, read-out: IC50 HER2-negative MDA-MB-468
Procedure: (§1) The mertansine (DM1) (Cayman CHEMICAL) was dissolved in dimethyl sulfoxide (DMSO: FUJIFILM Wako Pure Chemical Corporation) to prepare DM1 solutions of 60 μmol/L, 20 μmol/L, 6.7 μmol/L, 2.2 μmol/L, 0.74 μmol/L, 0.25 μmol/L, 0.082 μmol/L, and 0.027 μmol/L. Next, after a dilution series of 60 nmol/L, 20 nmol/L, 6.7 nmol/L, 2.2 nmol/L, 0.74 nmol/L, 0.25 nmol/L, 0.082 nmol/L, and 0.027 nmol/L were created by respectively diluting these solutions with RPMI1640 (hereinafter, RPMI1640 medium) containing 10% fetal bovine serum (Merck KGaA), these solutions were respectively added to a cell culture microplate in equal amounts to a cell culture liquid, and diluted to 1/2, thereby evaluating the cytotoxic effects thereof at a final DM1 concentration of 30 nmol/L, 10 nmol/L, 3.3 nmol/L, 1.1 nmol/L, 0.37 nmol/L, 0.12 nmol/L, 0.041 nmol/L, or 0.014 nmol/L.
(§2) A HER2 antigen-positive human gastric cancer cell line HCC-1954 (American Type Culture Collection) or a HER2 antigen-negative human breast cancer cell line MDA-MB-468 (American Type Culture Collection) was adjusted to a cell concentration of 2.0×10^4 cells/mL with the RPMI1640 medium, and 100 μL each was added to the 96 well microplate for cell culture and cultured overnight. […] The light emission amount was then measured with the plate reader (Molecular Devices, LLC.). The cell viability was calculated by the following equation. […]

[2] = test system: HER2 antigen-positive human cancer cell line HCC-1954; assay: Cytotoxic test (CellTiter-Glo cell viability), HCC-1954; format: cell-based; conditions: cultured for 4 days
Procedure: as §1, §2

[3] = test system: mouse colon cancer cell line C26; assay: Drug efficacy test in cancer-carrying nude mice with subcutaneously transplanted C26; format: in vivo; conditions: after 14 days from administration; tail vein, 3 times every other day; DACHPt-encapsulating SCNP 3 mg/kg in terms of Pt, oxaliplatin solution 8 mg/kg (3.9 mg/kg in terms of Pt)
Procedure: Cancer-carrying models obtained by subcutaneously transplanting a mouse colon cancer cell line C26 (American Type Culture Collection) into female nude mice (BALB/c-nu/nu, 7 weeks old; Charles River Laboratories Japan, Inc.) were used for the drug efficacy test.
The mouse colon cancer cell line C26 subcultured in a CO2 incubator was suspended in a liquid medium (Dulbecco's Modified Eagle's Medium-high glucose, Sigma-Aldrich), and injected subcutaneously in the back of each of the nude mice such that the number of cells per mouse was 1×106/100 μL. Then, the nude mice were raised for about 1 week, and then administration of the agent was started when an average value of tumor volumes was grown to about 30 mm^3. The DACHPt-encapsulating SCNP (DACHPt-encapsulating SCNP prepared using the copolymer of Example 70) was administered through the tail veins of the mice (3 times every other day), and antitumor effects were evaluated based on the tumor volumes (4 to 5 mice per 1 group). As a comparison, an oxaliplatin solution (Comparative Example 1) was used, and the oxaliplatin solution was administered in the same manner. The dose of each preparation was 8 mg/kg (3.9 mg/kg in terms of Pt) as the maximum administrable dose for the oxaliplatin solution, and 3 mg/kg in terms of Pt for the DACHPt-encapsulating SCNP. […]

Row | SMILES | pIC50 [1] | pIC50 [2] | T/C: ratio of the tumor volume of the drug administration group (T) to that of the control group (C) [3]
1 | COc1cc2cc(c1Cl)N(C)C(=O)C[C@H](OC(=O)[C@H](C)N(C)C(=O)CCS)[C@]1(C)O[C@H]1[C@H](C)[C@@H]1C[C@@](O)(NC(=O)O1)[C@H](OC)/C=C/C=C(\C)C2 [Comparative example 2, mertansine, reference compound] | 9.39 | 9.96 | –
2 | O=C1[O][Pt]2([NH][C@@H]3CCCC[C@H]3[NH]2)[O]C1=O [oxaliplatin solution, oxaliplatin] | – | – | 1.1

— US20260232835A1, “AFFIBODY MICELLE DRUG CONJUGATE” (KOWA COMPANY, LTD., priority 2022, published 2026)
